These compounds were tested against Human TASK-1 channels (Homo sapiens (Human), UniProt O14649) (assay: Activity on the TASK-1 channel in Xenopus oocytes (two-microelectrode voltage clamp)). Settings: not given.
Chain of Human TASK-1 channels (O14649 whole entry): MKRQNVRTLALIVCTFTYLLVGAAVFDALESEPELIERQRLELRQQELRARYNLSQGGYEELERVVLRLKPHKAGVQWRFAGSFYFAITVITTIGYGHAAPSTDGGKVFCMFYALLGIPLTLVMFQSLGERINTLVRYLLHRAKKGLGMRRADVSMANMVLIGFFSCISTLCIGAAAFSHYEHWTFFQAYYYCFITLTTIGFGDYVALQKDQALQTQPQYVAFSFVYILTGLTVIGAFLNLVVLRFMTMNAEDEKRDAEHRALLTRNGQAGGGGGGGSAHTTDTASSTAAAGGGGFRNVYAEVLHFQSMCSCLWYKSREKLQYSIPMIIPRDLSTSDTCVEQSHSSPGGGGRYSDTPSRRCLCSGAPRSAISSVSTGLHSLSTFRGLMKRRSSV
Type: cell-based
Protocol: Human TASK-1 channels were expressed in Xenopus oocytes. For this purpose, oocytes were isolated from Xenopus laevis and defoliculated. Subsequently, TASK-1-encoding RNA synthesized in vitro was injected into oocytes. […] Data were acquired and analyzed using a TEC-10cx amplifier (NPI Electronic, Tamm, Germany) connected to an ITC-16 interface (Instrutech Corp., Long Island, USA) and Pulse software (HEKA Elektronik, Lambrecht, Germany). […] Oocytes were continuously superfused with ND96 buffer containing: NaCl 96 mM, KCl 2 mM, CaCl2 1.8 mM, MgCl2 1 mM, HEPES 5 mM (pH adjusted to 7.4 with NaOH). All experiments were performed at room temperature.
Test substances were consecutively added to the bath solution at rising concentrations. […] IC50 values were obtained by fitting the data to the general dose-response equation.
Work on CC(=O)N1CCc2c(c(-c3cccc(Cl)c3)nn2Cc2ccc(F)cc2C)C1 [Example 6ba, 1-[3-(3-Chloro-phenyl)-1-(4-fluoro-2-methyl-benzyl)-1,4,6,7-tetrahydro-pyrazolo[4,3-c]pyridin-5-yl]-ethanone] yielded an inhibition at 5 µM of 81%. Compound CC(C)NC(=O)N1CCc2c(c(-c3cccc(C#N)c3)nn2Cc2ccc(F)cc2F)C1 [Example 11a, 3-(3-Cyano-phenyl)-1-(2,4-difluoro-benzyl)-1,4,6,7-tetrahydro-pyrazolo[4,3-c]pyridine-5-carboxylic acid isopropylamide] has an inhibition at 5 µM of 76%. With COc1ccc(-c2nn(Cc3ccc(F)cc3F)c3c2CN(C(C)=O)CC3)nc1Cl [Example 6z, 1-[3-(6-Chloro-5-methoxy-pyridin-2-yl)-1-(2,4-difluoro-benzyl)-1,4,6,7-tetrahydro-pyrazolo[4,3-c]pyridin-5-yl]-ethanone] the inhibition at 5 µM was 75%. CC(=O)N1CCc2c(c(-c3cccs3)nn2Cc2ccc(F)cc2F)C1 [Example 6af, 1-[1-(2,4-Difluoro-benzyl)-3-thiophen-2-yl-1,4,6,7-tetrahydro-pyrazolo[4,3-c]pyridin-5-yl]-ethanone] showed an inhibition at 5 µM of 72%. In the case of COc1cccc(-c2nn(Cc3ccc(F)cc3F)c3c2CN(C(C)=O)CC3)n1 [Example 6y, 1-[1-(2,4-Difluoro-benzyl)-3-(6-methoxy-pyridin-2-yl)-1,4,6,7-tetrahydro-pyrazolo[4,3-c]pyridin-5-yl]-ethanone], the inhibition at 5 µM is reported as 86%. CC(C)(C)OCC(=O)N1CCc2c(c(-c3cccc(C#N)c3)nn2Cc2ccc(F)cc2F)C1 [Example 8d, 3-[5-(2-tert-Butoxy-acetyl)-1-(2,4-difluoro-benzyl)-4,5,6,7-tetrahydro-1H-pyrazolo[4,3-c]pyridin-3-yl]-benzonitrile] was tested, and the inhibition at 5 µM was 75%. CC(=O)N1CCc2c(c(-c3ccsc3)nn2Cc2ccc(F)cc2F)C1 [Example 6al, 1-[1-(2,4-Difluoro-benzyl)-3-thiophen-3-yl-1,4,6,7-tetrahydro-pyrazolo[4,3-c]pyridin-5-yl]-ethanone] showed an inhibition at 5 µM of 75%. COc1ccnc(Cn2nc(-c3cccc(C(F)(F)F)c3)c3c2CCN(C(C)=O)C3)c1 [Example 6q, 1-[1-(4-Methoxy-pyridin-2-ylmethyl)-3-(3-trifluoromethyl-phenyl)-1,4,6,7-tetrahydro-pyrazolo[4,3-c]pyridin-5-yl]-ethanone] showed an inhibition at 5 µM of 70%. CC(=O)N1CCc2c(c(-c3cccc(C(F)(F)F)c3)nn2Cc2ccc(Cl)s2)C1 [Example 6ah, 1-[1-(5-Chloro-thiophen-2-ylmethyl)-3-(3-trifluoromethyl-phenyl)-1,4,6,7-tetrahydro-pyrazolo[4,3-c]pyridin-5-yl]-ethanone] gave an inhibition at 5 µM of 53%. CC(c1ccc(F)cc1)n1nc(-c2ccc(F)cc2)c2c1CCN(C(=O)NC(C)(C)C)C2 (single isomer, unassigned) [Example 11f, 3-(4-Fluoro-phenyl)-1-[1-(4-fluoro-phenyl)-ethyl]-1,4,6,7-tetrahydro-pyrazolo[4,3-c]pyridine-5-carboxylic acid tert-butylamide] gave an inhibition at 5 µM of 58%.

Same assay, conditions: human TASK-1 expressed in Xenopus oocytes, currents during pulses to 40 mV, room temperature
CS(=O)(=O)c1cccc(C(=O)N2CCc3c(c(-c4cccc(C#N)c4)nn3Cc3ccc(F)cc3F)C2)c1 [Example 8e, 3-[1-(2,4-Difluoro-benzyl)-5-(3-methanesulfonyl-benzoyl)-4,5,6,7-tetrahydro-1H-pyrazolo[4,3-c]pyridin-3-yl]-benzonitrile] was tested, and the IC50 was 1620 nM. Work on CC(=O)N1CCc2c(c(-c3cccc(C(F)(F)F)c3)nn2Cc2ccc(C#N)cc2)C1 [Example 6am, 4-[5-Acetyl-3-(3-trifluoromethyl-phenyl)-4,5,6,7-tetrahydro-pyrazolo[4,3-c]pyridin-1-ylmethyl]-benzonitrile] yielded an IC50 of 114 nM. For CC(=O)N1CCc2c(c(-c3cccc(Br)n3)nn2Cc2ccc(F)cc2F)C1 [Example 6w, 1-[3-(6-Bromo-pyridin-2-yl)-1-(2,4-difluoro-benzyl)-1,4,6,7-tetrahydro-pyrazolo[4,3-c]pyridin-5-yl]-ethanone], the IC50 was under 10000 nM. CC(=O)N1C2CCC1c1c(-c3ccc(F)cc3)nn(Cc3ccc(F)cc3F)c1C2 (stereo not shown) [Example 6o, 1-[5-(2,4-Difluoro-benzyl)-3-(4-fluoro-phenyl)-4,5,11-triaza-tricyclo [6.2.1.02,6]undeca-2(6),3-dien-11-yl]-ethanone] was tested, and the IC50 was under 10000 nM. Compound N#Cc1cccc(-c2nn(Cc3ccc(F)cc3F)c3c2CN(C(=O)CO)CC3)c1 [Example 14a, 3-[1-(2,4-Difluoro-benzyl)-5-(2-hydroxy-acetyl)-4,5,6,7-tetrahydro-1H-pyrazolo[4,3-c]pyridin-3-yl]-benzonitrile] has an IC50 of under 10000 nM. CC(=O)N1CCc2c(c(-c3ccc(F)cc3)nn2C(C)c2ccc(F)cc2)C1 (single isomer, unassigned; (+)) [Example 6be, (+)-1-{3-(4-Fluoro-phenyl)-1-[1-(4-fluoro-phenyl)-ethyl]-1,4,6,7-tetrahydro-pyrazolo[4,3-c]pyridin-5-yl}-ethanone] showed an IC50 of 500 nM. Work on Cn1ccc(C(=O)N2CCc3c(c(-c4cccc(C#N)c4)nn3Cc3ccc(F)cc3F)C2)n1 [Example 8x, 3-[1-(2,4-Difluoro-benzyl)-5-(1-methyl-1H-pyrazole-3-carbonyl)-4,5,6,7-tetrahydro-1H-pyrazolo[4,3-c]pyridin-3-yl]-benzonitrile] yielded an IC50 of 1880 nM. Compound CC(=O)N1CCc2c(c(-c3cccc(OC(F)(F)F)c3)nn2C(C)c2ccc(F)cc2)C1 (stereo not shown) [Example 6aw, 1-[1-[1-(4-Fluoro-phenyl)-ethyl]-3-(3-trifluoromethoxy-phenyl)-1,4,6,7-tetrahydro-pyrazolo[4,3-c]pyridin-5-yl]-ethanone] has an IC50 of 947 nM. CC(=O)N1CCc2c(c(-c3ccc(F)cc3)nn2Cc2cccc(C(F)(F)F)c2)C1 [Example 6av, 1-[3-(4-Fluoro-phenyl)-1-(3-trifluoromethyl-benzyl)-1,4,6,7-tetrahydro-pyrazolo[4,3-c]pyridin-5-yl]-ethanone] gave an IC50 of 911 nM. Compound CC(c1ccc(F)cc1)n1nc(-c2ccc(F)cc2)c2c1CCN(C(=O)N1CCOCC1)C2 (single isomer, unassigned) [Example 12b, {3-(4-Fluoro-phenyl)-1-[1-(4-fluoro-phenyl)-ethyl]-1,4,6,7-tetrahydro-pyr-azolo[4,3-c]pyridin-5-yl}-morpholin-4-yl-methanone] has an IC50 of 511 nM. In the case of N#Cc1cccc(-c2nn(Cc3ccc(F)cc3F)c3c2CN(C(=O)C2CCOCC2)CC3)c1 [Example 8l, 3-[1-(2,4-Difluoro-benzyl)-5-(tetra-hydro-pyran-4-carbonyl)-4,5,6,7-tetrahydro-1H-pyrazolo[4,3-c]pyridin-3-yl]-benzonitrile], the IC50 is reported as 585 nM. CC(=O)N1CCc2c(c(-c3ccc(F)cc3)nn2C(C)c2ccc(F)cc2)C1 (stereo not shown) [Example 6ar, 1-{3-(4-Fluoro-phenyl)-1-[1-(4-fluoro-phenyl)-ethyl]-1,4,6,7-tetrahydro-pyrazolo[4,3-c]pyridin-5-yl}-ethanone] gave an IC50 of 552 nM. With CC(=O)N1CCc2c(c(-c3ccc(F)cc3)nn2Cc2c(F)cccc2F)C1 [Example 6aq, 1-[1-(2,6-Difluoro-benzyl)-3-(4-fluoro-phenyl)-1,4,6,7-tetrahydro-pyrazolo[4,3-c]pyridin-5-yl]-ethanone] the IC50 was 359 nM. Cn1cncc1C(=O)N1CCc2c(c(-c3cccc(C#N)c3)nn2Cc2ccc(F)cc2F)C1 [Example 8w, 3-[1-(2,4-Difluoro-benzyl)-5-(3-methyl-3H-imidazole-4-carbonyl)-4,5,6,7-tetrahydro-1H-pyrazolo[4,3-c]pyridin-3-yl]-benzonitrile] was tested, and the IC50 was 1150 nM. COc1cccc(Cn2nc(-c3cccc(Cl)c3)c3c2CCN(C(C)=O)C3)c1 [Example 6bd, 1-[3-(3-Chloro-phenyl)-1-(3-methoxy-benzyl)-1,4,6,7-tetrahydro-pyrazolo[4,3-c]pyridin-5-yl]-ethanone] showed an IC50 of under 10000 nM. In the case of CC(=O)N1CCc2c(c(-c3cccc(F)c3)nn2Cc2ccc(F)cc2F)C1 [Example 6bj, 1-[1-(2,4-Difluoro-benzyl)-3-(3-fluoro-phenyl)-1,4,6,7-tetrahydro-pyrazolo[4,3-c]pyridin-5-yl]-ethanone], the IC50 is reported as 1160 nM. COc1cc(-c2nn(Cc3ccc(F)cc3F)c3c2CN(C(C)=O)CC3)ccc1F [Example 6ax, 1-[1-(2,4-Difluoro-benzyl)-3-(4-fluoro-3-methoxy-phenyl)-1,4,6,7-tetrahydro-pyrazolo[4,3-c]pyridin-5-yl]-ethanone] gave an IC50 of 975 nM. In the case of N#Cc1cccc(-c2nn(Cc3ccc(F)cc3F)c3c2CN(C(=O)c2ccncn2)CC3)c1 [Example 8v, 3-[1-(2,4-Difluoro-benzyl)-5-(pyrimidine-4-carbonyl)-4,5,6,7-tetrahydro-1H-pyrazolo[4,3-c]pyridin-3-yl]-benzonitrile], the IC50 is reported as 864 nM. Work on CC(=O)N1CCc2c(c(-c3cccc(OC(F)(F)F)c3)nn2Cc2ccc(F)cc2F)C1 [Example 6ap, 1-[1-(2,4-Difluoro-benzyl)-3-(3-trifluoromethoxy-phenyl)-1,4,6,7-tetrahydro-pyrazolo[4,3-c]pyridin-5-yl]-ethanone] yielded an IC50 of 285 nM. CC(=O)N1CCc2c(c(-c3cccc(C(F)(F)F)c3)nn2Cc2ccc(Cl)nc2)C1 [Example 6b, 1-[1-(6-Chloro-pyridin-3-ylmethyl)-3-(3-trifluoromethyl-phenyl)-1,4,6,7-tetrahydro-pyrazolo[4,3-c]pyridin-5-yl]-ethanone] gave an IC50 of 172 nM. CC(=O)N1CCc2c(c(-c3ccc(F)cc3)nn2Cc2ccc(Cl)c(F)c2)C1 [Example 6bg, 1-[1-(4-Chloro-3-fluoro-benzyl)-3-(4-fluoro-phenyl)-1,4,6,7-tetrahydro-pyrazolo[4,3-c]pyridin-5-yl]-ethanone] gave an IC50 of 398 nM.

Source: patent publication US9127001B2, “Substituted 4,5,6,7-tetrahydro-1H-pyrazolo[4,3-c]pyridines, their use as medicament, and pharmaceutical preparations comprising them” (Sanofi, priority 2011, dated 2015)
